Structures are written as SMILES. Read-outs that look alike come from different tables or passages of the source.

Holding throughout (experiment): KinomeScan kinase panel, single concentration 10 µM
What all share (assay type): binding

Test [1] concerns the target T1, KinomeScan kinase panel (Homo sapiens, UniProt Q00535).
T1 construct: purchased DiscoveRx (KinomeScan)
As to conditions: CDK5, 10 µM; read-out: score (%).

In test [2] the target is T2, KinomeScan kinase panel (Homo sapiens, UniProt Q8TD08).
T2 construct: purchased DiscoveRx (KinomeScan)
T2 sequence (Q8TD08 1-544): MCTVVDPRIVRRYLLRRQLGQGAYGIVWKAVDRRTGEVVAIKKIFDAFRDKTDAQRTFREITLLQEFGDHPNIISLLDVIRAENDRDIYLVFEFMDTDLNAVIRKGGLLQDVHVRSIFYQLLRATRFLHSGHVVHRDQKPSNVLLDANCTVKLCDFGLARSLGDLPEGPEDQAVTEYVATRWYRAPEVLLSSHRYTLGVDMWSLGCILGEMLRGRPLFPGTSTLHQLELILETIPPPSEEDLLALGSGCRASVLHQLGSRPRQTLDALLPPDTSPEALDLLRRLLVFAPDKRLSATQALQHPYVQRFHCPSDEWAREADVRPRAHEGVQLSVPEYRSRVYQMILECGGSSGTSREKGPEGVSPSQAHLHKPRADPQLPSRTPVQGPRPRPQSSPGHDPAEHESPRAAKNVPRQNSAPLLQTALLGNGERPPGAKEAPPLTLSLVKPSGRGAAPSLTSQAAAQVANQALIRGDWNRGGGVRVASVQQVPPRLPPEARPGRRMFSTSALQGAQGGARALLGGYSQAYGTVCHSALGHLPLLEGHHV
As to conditions: ERK8, 10 µM; read-out: score (%).

For test [3], the target named is T3, KinomeScan kinase panel (Homo sapiens, UniProt O00750).
T3 construct: purchased DiscoveRx (KinomeScan)
T3 sequence (O00750 whole entry): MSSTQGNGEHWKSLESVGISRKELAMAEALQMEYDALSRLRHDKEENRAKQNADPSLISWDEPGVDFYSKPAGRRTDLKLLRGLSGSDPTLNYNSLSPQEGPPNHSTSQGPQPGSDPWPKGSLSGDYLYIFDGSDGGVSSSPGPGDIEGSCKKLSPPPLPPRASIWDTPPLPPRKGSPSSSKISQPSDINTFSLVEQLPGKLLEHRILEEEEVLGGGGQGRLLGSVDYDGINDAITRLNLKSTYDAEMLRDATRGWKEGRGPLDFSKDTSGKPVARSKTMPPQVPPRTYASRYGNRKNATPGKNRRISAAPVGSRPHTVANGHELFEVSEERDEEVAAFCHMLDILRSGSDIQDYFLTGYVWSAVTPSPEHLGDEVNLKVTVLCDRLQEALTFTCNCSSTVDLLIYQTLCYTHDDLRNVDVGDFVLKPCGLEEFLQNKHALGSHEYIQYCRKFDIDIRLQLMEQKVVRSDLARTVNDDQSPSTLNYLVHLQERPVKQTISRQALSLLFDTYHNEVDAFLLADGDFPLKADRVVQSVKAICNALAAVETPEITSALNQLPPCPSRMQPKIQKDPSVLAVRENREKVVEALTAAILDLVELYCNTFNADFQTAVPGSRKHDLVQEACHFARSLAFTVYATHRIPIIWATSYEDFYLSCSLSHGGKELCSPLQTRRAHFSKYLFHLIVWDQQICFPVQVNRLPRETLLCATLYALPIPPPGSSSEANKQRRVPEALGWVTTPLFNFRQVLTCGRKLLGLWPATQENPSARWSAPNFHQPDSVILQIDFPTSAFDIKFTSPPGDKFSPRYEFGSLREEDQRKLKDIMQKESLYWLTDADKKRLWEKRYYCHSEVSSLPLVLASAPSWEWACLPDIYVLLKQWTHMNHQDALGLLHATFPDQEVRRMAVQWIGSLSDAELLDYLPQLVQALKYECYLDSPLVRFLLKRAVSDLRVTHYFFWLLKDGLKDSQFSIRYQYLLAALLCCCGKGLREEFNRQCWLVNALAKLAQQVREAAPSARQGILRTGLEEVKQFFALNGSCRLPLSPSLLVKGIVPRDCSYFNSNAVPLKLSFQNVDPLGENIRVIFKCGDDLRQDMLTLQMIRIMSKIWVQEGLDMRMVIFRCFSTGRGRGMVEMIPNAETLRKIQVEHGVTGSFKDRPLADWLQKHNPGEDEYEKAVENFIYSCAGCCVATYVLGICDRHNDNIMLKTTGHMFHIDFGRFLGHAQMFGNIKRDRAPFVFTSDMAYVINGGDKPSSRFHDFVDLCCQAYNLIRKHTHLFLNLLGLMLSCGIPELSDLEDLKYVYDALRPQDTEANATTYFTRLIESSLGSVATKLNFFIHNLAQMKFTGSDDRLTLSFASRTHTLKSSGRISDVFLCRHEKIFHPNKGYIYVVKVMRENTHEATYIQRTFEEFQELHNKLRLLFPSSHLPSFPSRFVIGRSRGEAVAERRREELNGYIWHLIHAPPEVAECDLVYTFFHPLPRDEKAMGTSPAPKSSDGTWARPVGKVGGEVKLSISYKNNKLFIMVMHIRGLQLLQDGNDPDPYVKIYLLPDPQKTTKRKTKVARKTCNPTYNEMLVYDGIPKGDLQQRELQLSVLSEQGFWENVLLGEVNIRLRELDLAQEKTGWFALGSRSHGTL
To be noted: PIK3C2B, 10 µM; read-out: score (%).

For test [4], the target named is T4, KinomeScan kinase panel (Homo sapiens, UniProt P29322).
T4 construct: purchased DiscoveRx (KinomeScan)
T4 sequence (P29322 28-1005): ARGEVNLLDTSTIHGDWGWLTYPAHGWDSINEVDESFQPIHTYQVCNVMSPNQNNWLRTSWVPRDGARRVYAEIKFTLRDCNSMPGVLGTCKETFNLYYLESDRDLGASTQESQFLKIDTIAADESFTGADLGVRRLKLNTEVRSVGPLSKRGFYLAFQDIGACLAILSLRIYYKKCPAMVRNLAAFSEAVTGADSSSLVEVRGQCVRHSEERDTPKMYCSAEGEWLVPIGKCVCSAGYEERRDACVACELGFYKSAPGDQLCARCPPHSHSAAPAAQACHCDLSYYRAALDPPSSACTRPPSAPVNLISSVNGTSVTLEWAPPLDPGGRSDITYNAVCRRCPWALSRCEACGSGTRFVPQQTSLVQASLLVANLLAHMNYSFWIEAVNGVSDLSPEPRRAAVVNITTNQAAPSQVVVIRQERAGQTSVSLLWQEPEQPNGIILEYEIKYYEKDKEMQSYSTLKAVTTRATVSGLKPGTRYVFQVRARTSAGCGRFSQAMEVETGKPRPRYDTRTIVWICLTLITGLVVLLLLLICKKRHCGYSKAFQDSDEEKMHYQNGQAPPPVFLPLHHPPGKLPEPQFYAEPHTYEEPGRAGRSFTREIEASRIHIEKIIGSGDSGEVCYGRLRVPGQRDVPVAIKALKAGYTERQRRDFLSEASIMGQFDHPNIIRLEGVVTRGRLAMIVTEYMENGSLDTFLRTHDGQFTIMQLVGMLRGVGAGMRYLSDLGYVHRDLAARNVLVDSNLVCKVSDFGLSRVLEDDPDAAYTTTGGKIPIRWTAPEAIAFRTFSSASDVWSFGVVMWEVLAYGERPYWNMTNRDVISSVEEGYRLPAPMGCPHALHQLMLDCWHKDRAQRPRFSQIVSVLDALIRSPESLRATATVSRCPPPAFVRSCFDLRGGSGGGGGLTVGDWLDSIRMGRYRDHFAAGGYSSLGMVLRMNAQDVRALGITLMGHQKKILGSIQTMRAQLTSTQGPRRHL
To be noted: EPHA8, 10 µM; read-out: score (%).

Test [5] concerns the target T5, KinomeScan kinase panel (Homo sapiens, UniProt Q00526).
T5 construct: purchased DiscoveRx (KinomeScan)
To be noted: CDK3, 10 µM.

Test [6] concerns the target T6, KinomeScan kinase panel (Homo sapiens, UniProt Q9H2G2).
T6 construct: purchased DiscoveRx (KinomeScan)
As to conditions: 10 µM, read-out: score (%).

Test [7] has as its target T7, KinomeScan kinase panel (Homo sapiens, UniProt Q12866).
T7 construct: purchased DiscoveRx (KinomeScan)
T7 sequence (Q12866 21-999): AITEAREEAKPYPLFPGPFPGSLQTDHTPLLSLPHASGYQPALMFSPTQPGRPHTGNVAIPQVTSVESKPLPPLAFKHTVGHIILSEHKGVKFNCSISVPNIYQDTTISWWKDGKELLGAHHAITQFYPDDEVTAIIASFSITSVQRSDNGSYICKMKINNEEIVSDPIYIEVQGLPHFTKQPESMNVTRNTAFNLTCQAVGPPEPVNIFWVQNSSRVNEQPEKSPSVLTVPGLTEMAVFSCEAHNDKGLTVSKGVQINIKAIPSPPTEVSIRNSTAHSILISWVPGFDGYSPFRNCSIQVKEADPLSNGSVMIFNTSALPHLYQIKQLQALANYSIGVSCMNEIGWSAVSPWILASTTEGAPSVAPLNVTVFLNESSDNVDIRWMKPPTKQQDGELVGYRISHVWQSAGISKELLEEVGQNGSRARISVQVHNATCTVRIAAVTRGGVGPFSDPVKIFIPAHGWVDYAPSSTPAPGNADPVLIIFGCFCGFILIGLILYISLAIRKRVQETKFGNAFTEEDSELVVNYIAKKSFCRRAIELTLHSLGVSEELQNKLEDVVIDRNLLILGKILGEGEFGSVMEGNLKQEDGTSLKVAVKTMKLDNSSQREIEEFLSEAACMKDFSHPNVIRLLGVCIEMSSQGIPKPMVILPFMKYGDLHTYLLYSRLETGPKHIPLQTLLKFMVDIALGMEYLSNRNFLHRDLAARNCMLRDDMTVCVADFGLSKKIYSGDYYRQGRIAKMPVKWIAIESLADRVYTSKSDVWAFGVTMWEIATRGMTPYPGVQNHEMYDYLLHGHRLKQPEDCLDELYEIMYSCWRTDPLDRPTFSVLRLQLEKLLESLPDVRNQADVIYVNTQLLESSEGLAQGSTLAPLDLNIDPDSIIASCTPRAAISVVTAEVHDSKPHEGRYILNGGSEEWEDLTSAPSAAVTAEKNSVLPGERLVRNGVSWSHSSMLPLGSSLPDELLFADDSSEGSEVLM
To be noted: MERTK, 10 µM; read-out: score (%).

In test [8] the target is T8, KinomeScan kinase panel (Homo sapiens, UniProt Q15349).
T8 construct: purchased DiscoveRx (KinomeScan)
T8 sequence (Q15349 whole entry): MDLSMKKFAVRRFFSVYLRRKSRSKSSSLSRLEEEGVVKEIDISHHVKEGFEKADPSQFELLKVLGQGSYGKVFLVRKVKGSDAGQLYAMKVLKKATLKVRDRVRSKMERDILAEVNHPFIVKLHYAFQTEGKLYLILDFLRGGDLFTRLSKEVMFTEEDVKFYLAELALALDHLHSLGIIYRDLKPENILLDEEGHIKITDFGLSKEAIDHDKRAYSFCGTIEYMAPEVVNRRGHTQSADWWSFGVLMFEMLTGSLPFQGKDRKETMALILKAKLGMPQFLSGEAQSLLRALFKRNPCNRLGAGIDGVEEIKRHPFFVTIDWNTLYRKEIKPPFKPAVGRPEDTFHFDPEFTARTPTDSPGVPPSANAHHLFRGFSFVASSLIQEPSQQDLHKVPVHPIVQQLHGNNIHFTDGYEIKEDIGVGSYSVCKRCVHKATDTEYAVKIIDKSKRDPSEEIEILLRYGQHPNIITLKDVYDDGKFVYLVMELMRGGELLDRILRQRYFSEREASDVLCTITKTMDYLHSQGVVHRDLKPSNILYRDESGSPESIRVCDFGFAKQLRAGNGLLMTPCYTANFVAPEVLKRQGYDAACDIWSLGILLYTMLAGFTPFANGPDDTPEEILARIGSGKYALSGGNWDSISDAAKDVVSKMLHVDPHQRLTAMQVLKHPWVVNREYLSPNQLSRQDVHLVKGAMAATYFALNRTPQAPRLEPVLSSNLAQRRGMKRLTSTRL
To be noted: 10 µM, read-out: score (%).

T5 sequence (Q00526 whole entry): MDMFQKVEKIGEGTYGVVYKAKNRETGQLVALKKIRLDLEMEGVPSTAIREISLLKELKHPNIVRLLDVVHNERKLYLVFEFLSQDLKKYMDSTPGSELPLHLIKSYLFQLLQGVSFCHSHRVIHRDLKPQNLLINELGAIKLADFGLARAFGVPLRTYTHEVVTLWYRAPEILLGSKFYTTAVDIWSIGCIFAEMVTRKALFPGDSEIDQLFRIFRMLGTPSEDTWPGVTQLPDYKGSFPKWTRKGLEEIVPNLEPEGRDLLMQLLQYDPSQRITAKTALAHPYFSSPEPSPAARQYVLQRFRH
T1 sequence (Q00535 whole entry): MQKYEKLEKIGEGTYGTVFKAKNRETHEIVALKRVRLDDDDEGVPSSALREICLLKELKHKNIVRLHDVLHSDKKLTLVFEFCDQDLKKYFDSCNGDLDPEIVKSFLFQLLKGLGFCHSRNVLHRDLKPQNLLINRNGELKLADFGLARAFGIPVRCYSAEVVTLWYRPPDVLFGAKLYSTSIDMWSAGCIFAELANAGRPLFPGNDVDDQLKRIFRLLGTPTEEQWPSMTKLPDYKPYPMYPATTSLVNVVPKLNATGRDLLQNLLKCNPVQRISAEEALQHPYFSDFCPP
T6 sequence (Q9H2G2 whole entry): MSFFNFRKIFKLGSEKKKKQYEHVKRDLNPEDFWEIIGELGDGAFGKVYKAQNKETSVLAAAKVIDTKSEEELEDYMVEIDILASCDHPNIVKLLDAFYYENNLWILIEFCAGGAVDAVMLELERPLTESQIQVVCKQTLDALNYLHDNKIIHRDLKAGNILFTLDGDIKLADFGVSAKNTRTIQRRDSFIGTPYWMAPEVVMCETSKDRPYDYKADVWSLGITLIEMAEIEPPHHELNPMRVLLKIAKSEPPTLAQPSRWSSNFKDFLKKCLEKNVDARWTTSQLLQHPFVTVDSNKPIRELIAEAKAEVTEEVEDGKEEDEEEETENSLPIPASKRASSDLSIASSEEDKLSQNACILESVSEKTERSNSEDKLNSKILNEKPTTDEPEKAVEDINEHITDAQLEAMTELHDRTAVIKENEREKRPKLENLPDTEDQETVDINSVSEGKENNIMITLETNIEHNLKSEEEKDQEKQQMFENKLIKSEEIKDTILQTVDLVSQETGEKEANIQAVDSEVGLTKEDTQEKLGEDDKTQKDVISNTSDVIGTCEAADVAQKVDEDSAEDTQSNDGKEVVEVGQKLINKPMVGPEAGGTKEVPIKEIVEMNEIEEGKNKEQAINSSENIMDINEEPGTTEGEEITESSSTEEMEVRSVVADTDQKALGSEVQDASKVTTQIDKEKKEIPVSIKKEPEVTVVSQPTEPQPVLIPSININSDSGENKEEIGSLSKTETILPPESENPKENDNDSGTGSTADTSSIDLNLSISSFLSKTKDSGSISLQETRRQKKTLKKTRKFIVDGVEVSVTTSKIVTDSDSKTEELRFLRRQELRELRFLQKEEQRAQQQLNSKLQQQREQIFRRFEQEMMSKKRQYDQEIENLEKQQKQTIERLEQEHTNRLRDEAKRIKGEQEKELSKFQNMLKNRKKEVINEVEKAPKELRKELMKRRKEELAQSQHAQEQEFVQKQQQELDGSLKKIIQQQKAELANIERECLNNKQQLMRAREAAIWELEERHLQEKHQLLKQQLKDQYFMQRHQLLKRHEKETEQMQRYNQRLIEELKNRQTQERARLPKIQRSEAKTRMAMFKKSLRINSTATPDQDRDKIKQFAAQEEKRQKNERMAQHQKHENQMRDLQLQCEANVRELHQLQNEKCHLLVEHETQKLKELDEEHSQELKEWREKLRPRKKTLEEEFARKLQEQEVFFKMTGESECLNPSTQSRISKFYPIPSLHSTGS

On to `CCN1CCN(Cc2ccc(NC(=O)c3ccc(C)c(NC(=O)c4cncc(-c5cccs5)c4)c3)cc2C(F)(F)F)CC1` [ALW-II-41-27], for which the remaining binding at 10 µM in test [1] is above 30%; in test [2], above 30%; in test [3] it was above 30%; in test [4], 0.1%; in test [6] (kinase SLK) it was 5%; in test [7], above 30%. The remaining binding at 10 µM in test [8] (kinase RPS6KA2(Kin.Dom.1-N-terminal)) and in test [8] (kinase RPS6KA2(Kin.Dom.2-C-terminal)) was above 30% throughout. Further, the “score (%)” value in test [5] is recorded as “nb (Hits values higher than 30% were considered negative (no binding: nb))”.
In the case of `CCN1CCN(Cc2ccc(NC(=O)c3ccc(C)c(/C=C/c4cnc5[nH]ccc5c4Cl)c3)cc2C(F)(F)F)CC1` [HG-6-63-01, (E)-3-(2-(4-chloro-1H-pyrrolo[2,3-b]pyridin-5-yl)vinyl)-N-(4-((4-ethylpiperazin-1-yl)methyl)-3-(trifluoromethyl)phenyl)-4-methylbenzamide], the remaining binding at 10 µM is above 30% in test [1]; above 30% in test [2]; above 30% in test [3]; 0.1% in test [4]; 0.85% in test [6] (SLK); above 30% in test [7]. Also, the remaining binding at 10 µM in test [8] (RPS6KA2(Kin.Dom.1)) is 7.4%; in test [8] (RPS6KA2(Kin.Dom.2)) it was above 30%. Also, the “score (%)” value in test [5] is “nb (Hits values higher than 30% were considered negative (no binding: nb))”.
Consider `CCN1CCN(Cc2ccc(NC(=O)c3ccc(C)c(C#Cc4cccnc4)c3)cc2C(F)(F)F)CC1` [XMD15-44], for which the remaining binding at 10 µM in test [1] is 10%; in test [2], 1.8%; in test [3] it was 100%; in test [4], 0%; in test [6] (kinase SLK), 0.1%; in test [7], 5.2%. For the same compound, the remaining binding at 10 µM in test [8] (kinase RSK3(Kin.Dom.1-N-terminal)) was 9.5%; in test [8] (kinase RSK3(Kin.Dom.2-C-terminal)), 30%. Also, the “score (%)” value in test [5] is recorded as 24%.

These data come from paper PMC4457528, “Identification of Novel Small Molecule Inhibitors of Oncogenic RET Kinase” (PLoS ONE, 2015).
